Consider 20 compounds from patent US10300074B2, “Use of inhibitor of apoptosis protein (IAP) antagonists in HIV therapy” (Sanford-Burnham Medical Research Institute, priority 2014, dated 2019).

A value given as a limit tells only on which side of the number the result lay.

One assay deals with XIAP BIR3 (Homo sapiens (Human), UniProt P98170). The assay is described as follows: XIAP BIR3 Ki. It counts as binding. Conditions: Table B-1.
The target of another assay is XIAP BIR1/2 (Homo sapiens (Human), UniProt P98170). As to the kind of experiment: XIAP BIR1/2 Ki. Conditions: Table B-1. It counts as binding.
XIAP BIR1/2, sequence (P98170 1-240): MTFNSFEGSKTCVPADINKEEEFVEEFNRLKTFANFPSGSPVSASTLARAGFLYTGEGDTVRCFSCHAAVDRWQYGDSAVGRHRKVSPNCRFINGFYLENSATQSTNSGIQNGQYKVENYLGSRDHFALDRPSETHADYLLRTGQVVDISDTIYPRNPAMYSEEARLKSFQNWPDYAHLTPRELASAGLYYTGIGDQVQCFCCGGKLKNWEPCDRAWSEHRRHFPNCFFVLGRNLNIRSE

XIAP BIR3, sequence (P98170 241-356): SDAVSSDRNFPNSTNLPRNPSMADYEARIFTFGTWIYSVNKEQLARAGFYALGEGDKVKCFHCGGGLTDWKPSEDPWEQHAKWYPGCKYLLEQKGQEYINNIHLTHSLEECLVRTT

The term Ki denotes the equilibrium dissociation constant of an inhibitor or competing ligand from its target. For `CN[C@@H](C)C(=O)N[C@@H]1C(=O)N2C(C(=O)NC(c3ccccc3)c3ccccc3)CC[C@@H]2O[C@@H]1C` (some centres unmarked) [Compound 15], the values for the Ki on XIAP BIR3 and at XIAP BIR1/2 were 25 to 50 µM and more than 50 µM, respectively.
For the compound `CN[C@@H](C)C(=O)N[C@H]1Cc2c([nH]c3ccccc23)[C@H]2CCC(C(=O)N[C@@H]3CCCc4ccccc43)N2C1=O` (some centres unmarked) [Compound 31], the Ki at XIAP BIR3 and at XIAP BIR1/2 was not above 25 µM each time.
Turning to `CN[C@@H](C)C(=O)N[C@H]1CCO[C@H]2CCC(C(=O)Nc3cccc4ccccc34)N2C1=O` (some centres unmarked) [Compound 13], the Ki on XIAP BIR3 and on XIAP BIR1/2 was not above 25 µM each time.
`CN[C@@H](C)C(=O)N[C@H]1CCS[C@H]2CCCC(C(=O)N[C@@H]3CCCc4ccccc43)N2C1=O` (some centres unmarked) [Compound 41]: the Ki on XIAP BIR3 and on XIAP BIR1/2 was not above 25 µM throughout.
With `CN[C@@H](C)C(=O)N[C@H]1CCN[C@H]2CCC(C(=O)N[C@@H]3CCCc4ccccc43)N2C1=O` (some centres unmarked) [Compound 29], the Ki at XIAP BIR3 and at XIAP BIR1/2 was more than 50 µM in each case.
Regarding `CN[C@@H](C)C(=O)N[C@H]1CCCNC2CCC(C(=O)NC3CCCc4ccccc43)N2C1=O` (some centres unmarked) [Compound 16], the Ki was not above 25 µM at XIAP BIR3 and 25 to 50 µM on XIAP BIR1/2.
The matching figures for `CN[C@@H](C)C(=O)N[C@H]1CO[C@H]2CCC(C(=O)Nc3ccc(OC)cc3)N2C1=O` (some centres unmarked) [Compound 4]: 25 to 50 µM and more than 50 µM.
The matching figures for `CN[C@@H](C)C(=O)N[C@H]1Cc2c([nH]c3ccccc23)[C@H]2CCC(C(=O)N[C@@H]3CCCc4ccccc43)N2C1=O` (some centres unmarked) [Compound 30]: 25 to 50 µM and more than 50 µM.
As for `CN[C@@H](C)C(=O)N[C@H]1CO[C@H]2CCC(C(=O)Nc3ccc(OC)cc3)N2C1=O` (some centres unmarked) [Compound 7], at XIAP BIR3, the Ki is 25 to 50 µM.
Regarding `CC(=O)N(C)[C@@H](C)C(=O)N[C@H]1CCCN(C(C)=O)[C@H]2CCC(C(=O)Nc3cccc4ccccc34)N2C1=O` (some centres unmarked) [Compound 18], the values for the Ki at XIAP BIR3 and on XIAP BIR1/2 were 25 to 50 µM and more than 50 µM, respectively.
The matching figures for `CN[C@@H](C)C(=O)N[C@H]1CO[C@H]2CCC(C(=O)Nc3ccc(Cl)cc3)N2C1=O` (some centres unmarked) [Compound 8]: 25 to 50 µM and more than 50 µM.
The matching figures for `CN[C@@H](C)C(=O)N[C@H]1CO[C@H]2CCC(C(=O)NCc3ccccc3)N2C1=O` (some centres unmarked) [Compound 5]: 25 to 50 µM and more than 50 µM.
The like results for `CN[C@@H](C)C(=O)N[C@H]1CCN[C@H]2CCC(C(=O)N[C@@H]3CCCc4ccccc43)N2C1=O` (some centres unmarked) [Compound 28] were, in that order, 25 to 50 µM and more than 50 µM.
Consider `CN[C@@H](C)C(=O)N[C@H]1CO[C@H]2CCC(C(=O)NCc3ccccc3)N2C1=O` (some centres unmarked) [Compound 6], for which the Ki at XIAP BIR3 was in the range of 25 to 50 µM.
Consider `CN[C@@H](C)C(=O)N[C@H]1CCO[C@H]2CC3(CCCC3)C(C(=O)N[C@@H]3CCCc4ccccc43)N2C1=O` (some centres unmarked) [Compound 43], for which the Ki on XIAP BIR3 and at XIAP BIR1/2 was not above 25 µM each time.
`CN[C@@H](C)C(=O)N[C@H]1CCO[C@H]2CC[C@@H](C(=O)Nc3cccc4ccccc34)N2C1=O` [Compound 25]: the Ki on XIAP BIR3 and at XIAP BIR1/2 was not above 25 µM in each case.
Consider `CN[C@@H](C)C(=O)N[C@@H]1C(=O)N2C(C(=O)Nc3cccc4ccccc34)CC[C@@H]2O[C@@H]1C` (some centres unmarked) [Compound 11], for which the Ki is 25 to 50 µM on XIAP BIR3 and more than 50 µM at XIAP BIR1/2.
`CN[C@@H](C)C(=O)N[C@H]1CO[C@H]2CCC(C(=O)Nc3ccc(OC)cc3)N2C1=O` (some centres unmarked) [Compound 3]: the Ki at XIAP BIR3 is 25 to 50 µM.
For the compound `CN[C@@H](C)C(=O)N[C@H]1CCO[C@H]2CCC(C(=O)n3ccc4ccccc43)N2C1=O` (some centres unmarked) [Compound 23], the Ki on XIAP BIR3 is 25 to 50 µM.
The same measure, in the same setting: as for `CC(=O)N(C)[C@@H](C)C(=O)N[C@H]1CCCN(C(C)=O)[C@H]2CCC(C(=O)Nc3cccc4ccccc34)N2C1=O` (some centres unmarked) [Compound 19], the figure is 25 to 50 µM.
